Experimental findings from PubChem BioAssay (NCI) are described below.

Some test systems named below: SNB-78 CNS; HOP-18 NSCLC; RXF-631 renal; LXFL 529 NSCLC; KM20L2 colon; DMS 114 small cell lung; DLD-1 colon; DMS 273 small cell lung; MDA-N; P388/ADR leukemia; SN12K1 renal.
What all share (test): NCI tumour cell line growth inhibition, 48 h

Values joined by “and” are separate entries in the source; they are usually repeats but may differ in a detail not shown here. Identical values can stand only once.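 Briefly, cells in 96-well plates were exposed to five compound concentrations for 48 h, and endpoints were estimated by linear interpolation. Abbreviation: GI50, concentration required for 50% inhibition of growth. The concentration for full growth arrest is given as TGI.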

For `CC1=C(C(=O)Nc2ccc(C)cc2)C(c2cccc([N+](=O)[O-])c2)C(C(=O)Nc2ccc(C)cc2)=C(C)N1`, the TGI in the test with SNB-78 CNS was greater than 100 µM; in the test with HOP-18 NSCLC it was 80.2 µM; in the test with RXF-631 renal, 91.3 µM; in the test with LXFL 529 NSCLC it was greater than 100 µM; with KM20L2 colon it was 48 µM; in the test with DMS 114 small cell lung it was 74.2 µM. Also, the TGI in the test with DLD-1 colon and in the test on DMS 273 small cell lung was greater than 100 µM each time.

`Cc1c(Cl)c(C)c(Cl)c(O)c1Cl` registered a TGI with MDA-N of 99.2 µM.

Consider `Cc1ccccc1-n1c(CCl)nc2ccc(Br)cc2c1=O`, for which the TGI was 52.2 µM with SNB-78 CNS; 55.3 µM in the test on HOP-18 NSCLC; 42.1 µM in the test with RXF-631 renal; 18.5 µM in the test with LXFL 529 NSCLC; 39.9 µM in the test with KM20L2 colon; 20.5 µM in the test with DMS 114 small cell lung. The TGI in the test on DLD-1 colon is 16.6 µM; in the test with DMS 273 small cell lung it was greater than 100 µM.

Regarding `COc1cc2c(cc1[N+](=O)[O-])C(=O)C(Br)(Br)CCC2`, in the test with MDA-N, the TGI turned out to be 9.46 µM.

As for `CC(=O)Nc1ccc(C2=N/C(=C\c3ccc(Cl)cc3)C(=O)O2)cc1`, the TGI is greater than 100 µM in the test on SNB-78 CNS; greater than 100 µM with HOP-18 NSCLC; 56.9 µM with LXFL 529 NSCLC; greater than 100 µM in the test with KM20L2 colon; greater than 100 µM with DLD-1 colon; greater than 100 µM in the test on DMS 273 small cell lung.

As to `COC(=O)C1=CC(=O)[C@@H]2CCCC[C@H]12`, the TGI with SNB-78 CNS, in the test with HOP-18 NSCLC, in the test on RXF-631 renal, in the test with LXFL 529 NSCLC, with KM20L2 colon and with DMS 114 small cell lung was greater than 100 µM in each case. The TGI in the test with DLD-1 colon and with DMS 273 small cell lung was greater than 100 µM throughout.

On to `O=C(CC1(O)C(=O)Nc2ccccc21)c1ccccc1O` (centres undefined), for which the TGI with SNB-78 CNS, in the test on RXF-631 renal, with LXFL 529 NSCLC, in the test with KM20L2 colon, with DMS 114 small cell lung and in the test with DLD-1 colon was greater than 100 µM each time. Further, in the test on DMS 273 small cell lung, the TGI is greater than 100 µM.

As to `O=C(O)c1ccc(/C=N/N=C2c3ccccc3-c3ccccc32)cc1`, in the test with MDA-N, the TGI was greater than 100 µM.

For the compound `Clc1ccccc1C1SCc2nc3ccccc3n21` (centres undefined), the values for the TGI with SNB-78 CNS, in the test on LXFL 529 NSCLC and in the test with DLD-1 colon were 53.6 µM, greater than 100 µM and greater than 100 µM, respectively.

For the compound `CCc1ccccc1NC(=O)C(=O)C1C(=O)N(c2ccccc2)N=C1N` (centres undefined), the TGI with SNB-78 CNS, in the test with HOP-18 NSCLC, in the test on RXF-631 renal, in the test on LXFL 529 NSCLC, in the test with KM20L2 colon and in the test on DMS 114 small cell lung was greater than 100 µM in each case. Also, the TGI with DLD-1 colon and in the test on DMS 273 small cell lung was greater than 100 µM in each case.

Take `N#CCCN(c1ccc(C=O)cc1)S(=O)(=O)c1ccccc1`: the TGI with LXFL 529 NSCLC, in the test with KM20L2 colon, with DMS 114 small cell lung and with DMS 273 small cell lung was greater than 100 µM throughout.

For the compound `N#Cc1cccc(C2C(=O)c3ccc(C(=O)c4ccc5c(c4)C(=O)N(c4ccc(Oc6ccc(N7C(=O)c8ccc(C(=O)c9ccc%10c(c9)C(=O)N(c9cccc(C#N)c9)C%10=O)cc8C7=O)cc6)cc4)C5=O)cc3C2=O)c1` (centres undefined), the TGI in the test with RXF-631 renal, in the test with LXFL 529 NSCLC, with KM20L2 colon, with DMS 114 small cell lung, in the test on DLD-1 colon and with DMS 273 small cell lung was greater than 100 µM in each case.

In turn, `COc1cc2c(cc1-c1coc3cc(O)ccc3c1=O)OCO2` registered a TGI with MDA-N greater than 100 µM.

The compound `NC(=O)c1csc(-c2ccc(CO)o2)n1` yielded a TGI with MDA-N greater than 100 µM.

Take `COc1cc(CC(=O)O)c([N+](=O)[O-])cc1OC`: the TGI in the test with SNB-78 CNS, in the test with RXF-631 renal, in the test with LXFL 529 NSCLC, in the test on KM20L2 colon, with DMS 114 small cell lung and in the test on DLD-1 colon was greater than 100 µM throughout. In addition, the TGI with DMS 273 small cell lung was greater than 100 µM.

In turn, `C=C(Br)COc1ccc2c(C)cc(=O)oc2c1` yielded a TGI in the test on MDA-N greater than 100 µM.

In turn, `c1ccc(CC(Nc2cccnc2)c2ccccc2)cc1` (centres undefined) had a TGI in the test with MDA-N of 47.8 µM.

Regarding `Cc1ccc(NC(=O)CC2SC(=Nc3ccc(Cl)cc3)NC2=O)cc1C` (centres undefined), the TGI with SNB-78 CNS amounted to 44.3 µM; in the test on HOP-18 NSCLC, 32.5 µM; with LXFL 529 NSCLC it was 34 µM; in the test on KM20L2 colon, 33.5 µM; in the test on DMS 114 small cell lung, 42.1 µM; with DLD-1 colon, 38.5 µM. Besides, the TGI in the test on DMS 273 small cell lung worked out at 34.3 µM.

Regarding `CC[As](CC)SCC1OC(OC(C)=O)C(OC(C)=O)C(OC(C)=O)C1OC(C)=O` (centres undefined), the TGI is 34.1 µM with SNB-78 CNS; 29.6 µM in the test on HOP-18 NSCLC; 6.64 µM in the test on RXF-631 renal; 3.77 µM with LXFL 529 NSCLC; 32.7 µM in the test with KM20L2 colon; 17.6 µM with DMS 114 small cell lung. The results for the TGI with DLD-1 colon and in the test on DMS 273 small cell lung were 30.9 µM and 29.4 µM, respectively.

Consider `CCn1ncc(N=O)c1N`, for which, in the test with MDA-N, the TGI is greater than 100 µM.

In the case of `CCC(C)C1NC(=O)C(NC(=O)C(CC(C)C)N(C)C(=O)[C@@H]2CC(O)CN2C(=O)[C@H](C)O)C(C)OC(=O)[C@H](Cc2ccc(OC)cc2)N(C)C(=O)[C@@H]2CCCN2C(=O)[C@H](CC(C)C)NC(=O)C(C)C(=O)[C@H](C(C)C)OC(=O)CC1O` (some centres undefined), in the test on MDA-N, the GI50 is 0.0292 µM; the TGI was 1.07 µM and 1.11 µM.

On to `CN1C2(c3ccccc3)C(C(=O)c3ccccc3)=C(C(=O)c3ccccc3)C1(c1ccccc1)c1c(-c3ccccc3)sc(-c3ccccc3)c12`, for which the TGI in the test on SNB-78 CNS, in the test with LXFL 529 NSCLC, in the test with KM20L2 colon, with DMS 114 small cell lung, in the test with DLD-1 colon and with DMS 273 small cell lung was greater than 100 µM in each case.

`CCc1ncc(CO)n1Cc1cccc2ccccc12`: the TGI in the test on MDA-N was greater than 100 µM.

As for `O=C(Cc1nc2ccccc2o1)C(=O)Nc1ccc(Cl)cc1Cl`, the TGI in the test with SNB-78 CNS, in the test on HOP-18 NSCLC, with LXFL 529 NSCLC, with KM20L2 colon, in the test on DMS 114 small cell lung and with DLD-1 colon was greater than 100 µM in each case. The TGI with DMS 273 small cell lung was greater than 100 µM.

For `O=C(CC(=O)c1cccc([N+](=O)[O-])c1)C(=O)Nc1ccccc1`, the TGI in the test with SNB-78 CNS, with HOP-18 NSCLC, in the test on RXF-631 renal, in the test on LXFL 529 NSCLC, in the test on KM20L2 colon and in the test with DMS 114 small cell lung was greater than 100 µM throughout. Moreover, the TGI in the test on DLD-1 colon and with DMS 273 small cell lung was greater than 100 µM in each case.

`CN(C)c1ccc(/C=c2/c3cc(O)ccc3n3c2cc(-c2ccccc2)[n+]3C)cc1`: the TGI in the test on MDA-N was 1.96 µM.

Turning to `[CH3][Hg]/[N]=C(/N)NC#N`, the GI50 was 4.76 µM with SNB-78 CNS; 4.63 µM in the test with HOP-18 NSCLC; 1.43 µM in the test on LXFL 529 NSCLC; 17.3 µM in the test on KM20L2 colon; 1.98 µM in the test with DMS 114 small cell lung; 4.27 µM with DLD-1 colon. In addition, the GI50 in the test on DMS 273 small cell lung was 13.5 µM. The TGI was found to be 27.1 µM in the test with SNB-78 CNS; 17.1 µM in the test with HOP-18 NSCLC; 3.08 µM in the test on LXFL 529 NSCLC; 33.4 µM with KM20L2 colon; 3.43 µM in the test on DMS 114 small cell lung; 16.9 µM with DLD-1 colon. The compound further displayed a TGI in the test with DMS 273 small cell lung of 27.5 µM.

In the test on MDA-N, `CC1(C)C(CC(=O)O)CCCC1CC(=O)O` (centres undefined) yielded a TGI greater than 100 µM.

For the compound `Cc1cc(C)nc(NS(=O)(=O)c2ccc(NC(=O)COC(=O)c3cccc4c(=O)c5ccccc5[nH]c34)cc2)n1`, the TGI with SNB-78 CNS, in the test with LXFL 529 NSCLC, with KM20L2 colon, with DMS 114 small cell lung, in the test with DLD-1 colon and in the test with DMS 273 small cell lung was greater than 100 µM each time.

Regarding `CC(C)C1=CC2=C(C(=O)C1=O)C13CCCC(C)(C)C1CC2OC3=O` (centres undefined), the TGI with MDA-N came out at 37.2 µM.

Regarding `Cc1cc(C)c(/C=N/NS(=O)(=O)c2ccccc2)c(C)c1`, the TGI with SNB-78 CNS, with HOP-18 NSCLC, with RXF-631 renal, in the test on LXFL 529 NSCLC, in the test with KM20L2 colon and with DMS 114 small cell lung was greater than 100 µM throughout. The TGI with DLD-1 colon and with DMS 273 small cell lung was greater than 100 µM throughout.

`COc1ccc([C@@H]2OC(=O)C3C2C(=O)O[C@H]3c2ccc(OC)cc2)cc1` (some centres undefined): the TGI in the test on SNB-78 CNS, in the test on HOP-18 NSCLC, in the test with RXF-631 renal, in the test on LXFL 529 NSCLC, in the test on KM20L2 colon and in the test on DMS 114 small cell lung was greater than 100 µM each time. Further, the TGI in the test on DLD-1 colon and in the test with DMS 273 small cell lung was greater than 100 µM throughout.

With `CC1C(O)=C(O)c2ccccc2N1O` (centres undefined), the TGI with SNB-78 CNS, in the test with HOP-18 NSCLC, in the test with RXF-631 renal, in the test with LXFL 529 NSCLC, with KM20L2 colon and in the test on DLD-1 colon was greater than 100 µM in each case. For the same compound, the TGI in the test on DMS 273 small cell lung is greater than 100 µM.

In the case of `O=C(O)CCC1c2[nH]c3ccccc3c2CCN1Cc1ccccc1` (centres undefined), the TGI in the test with SNB-78 CNS, with HOP-18 NSCLC, in the test on RXF-631 renal, with LXFL 529 NSCLC, in the test on KM20L2 colon and with DMS 114 small cell lung was greater than 100 µM each time. Moreover, the TGI in the test with DLD-1 colon and with DMS 273 small cell lung was greater than 100 µM each time.

Regarding `CC1[C@@H]2CC=C3[C@H]4CCC5Cc6nc7c(nc6C[C@@]5(C)C4CC(=O)[C@]32CO[C@]12OC(C)(C)CC2O)CC1CC[C@@H]2C3=C[C@H]4O[C@@]5(O[C@@](C)(CO)C[C@@H]5O)C(C)[C@@]4(O)[C@]3(C)[C@@H](O)CC2[C@]1(C)C7` (some centres undefined), the GI50 in the test on MDA-N was 0.00389 µM; in the test with SNB-78 CNS it was 0.000777 µM and 0.00329 µM; in the test with RXF-631 renal, 0.000312 µM; in the test with LXFL 529 NSCLC, 0.000384 µM; in the test with KM20L2 colon it was 0.00119 µM and 0.00294 µM; in the test on DLD-1 colon, 0.0416 µM and 0.0575 µM. Further, the GI50 in the test with DMS 273 small cell lung was 0.000365 µM. Moreover, the TGI with MDA-N was 0.0303 µM; in the test on HOP-18 NSCLC, 0.393 µM and > 3.65 µM; in the test with P388/ADR leukemia, 0.0109 µM; in the test with RXF-631 renal, 0.00275 µM; in the test with SN12K1 renal, 0.397 µM; in the test with LXFL 529 NSCLC it was 0.00244 µM. In addition, the TGI is 0.0349 µM and 0.0754 µM with KM20L2 colon; 0.0424 µM in the test with DMS 114 small cell lung; 0.709 µM and > 3.65 µM in the test on DLD-1 colon; 0.000328 µM and 0.000802 µM in the test with DMS 273 small cell lung.

Take `COC1C(=O)CCC2(CO2)C1(O)C1(C)OC1CC=C(C)C` (centres undefined): the TGI in the test with MDA-N was greater than 100 µM.
